Data: PubChem BioAssay (NCI)
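These data come from cells grown in 96-well plates and exposed to compound for 48 hours at five concentrations. GI50 marks 50% less growth. TGI is the concentration that stops growth completely.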

Columns and labels:
Assay in all cases: NCI anticancer screen, dose series, 48 h
SK-OV-3 ovarian = tested on: SK-OV-3 ovarian
MOLT-4 leukemia = tested on: MOLT-4 leukemia
M14 melanoma = tested on: M14 melanoma
UO-31 renal = tested on: UO-31 renal
MDA-MB-231 breast = tested on: MDA-MB-231 breast
RPMI-8226 leukemia = tested on: RPMI-8226 leukemia
K-562 leukemia = tested on: K-562 leukemia
SF-539 CNS = tested on: SF-539 CNS
SK-MEL-28 melanoma = tested on: SK-MEL-28 melanoma
OVCAR-3 ovarian = tested on: OVCAR-3 ovarian
U251 CNS = tested on: U251 CNS
EKVX NSCLC = tested on: EKVX NSCLC
MCF7 breast = tested on: MCF7 breast
NCI-H23 lung = tested on: NCI-H23 lung
SR leukemia = tested on: SR leukemia
LOX IMVI melanoma = tested on: LOX IMVI melanoma
SNB-19 CNS = tested on: SNB-19 CNS
BT-549 breast = tested on: BT-549 breast
RXF 393 renal = tested on: RXF 393 renal
SF-268 CNS = tested on: SF-268 CNS
OVCAR-8 ovarian = tested on: OVCAR-8 ovarian
HT29 colon = tested on: HT29 colon
UACC-62 melanoma = tested on: UACC-62 melanoma
SK-MEL-5 melanoma = tested on: SK-MEL-5 melanoma
786-0 renal = tested on: 786-0 renal
HCT-116 colon = tested on: HCT-116 colon
UACC-257 melanoma = tested on: UACC-257 melanoma
KM12 colon = tested on: KM12 colon
HOP-62 NSCLC = tested on: HOP-62 NSCLC
DU-145 prostate = tested on: DU-145 prostate
HCT-15 colon = tested on: HCT-15 colon
NCI-H460 lung = tested on: NCI-H460 lung
NCI-H226 lung = tested on: NCI-H226 lung
SF-295 CNS = tested on: SF-295 CNS
MDA-MB-435 = tested on: MDA-MB-435
OVCAR-4 ovarian = tested on: OVCAR-4 ovarian
CAKI-1 renal = tested on: CAKI-1 renal
IGROV1 ovarian = tested on: IGROV1 ovarian
OVCAR-5 ovarian = tested on: OVCAR-5 ovarian
CCRF-CEM leukemia = tested on: CCRF-CEM leukemia
HL-60(TB) leukemia = tested on: HL-60(TB) leukemia
COLO 205 colon = tested on: COLO 205 colon
HOP-92 NSCLC = tested on: HOP-92 NSCLC
SN12C renal = tested on: SN12C renal
NCI/ADR-RES ovarian = tested on: NCI/ADR-RES ovarian
NCI-H522 lung = tested on: NCI-H522 lung
A549 NSCLC = tested on: A549 NSCLC
PC-3 prostate = tested on: PC-3 prostate
SNB-75 CNS = tested on: SNB-75 CNS
ACHN renal = tested on: ACHN renal
TK-10 renal = tested on: TK-10 renal
MALME-3M melanoma = tested on: MALME-3M melanoma
T-47D breast = tested on: T-47D breast
SK-MEL-2 melanoma = tested on: SK-MEL-2 melanoma
SW-620 colon = tested on: SW-620 colon
HS 578T breast = tested on: HS 578T breast
HCC-2998 colon = tested on: HCC-2998 colon

Compound: O=S(=O)(Nc1cc(F)cc(Cl)c1)c1ccc(-c2cnc(C3CC3)o2)cc1
- GI50 (SK-OV-3 ovarian): 4.84 µM
- TGI (SK-OV-3 ovarian): 25.9 µM
- GI50 (MOLT-4 leukemia): 2.55 µM
- TGI (MOLT-4 leukemia): > 100 µM
- GI50 (M14 melanoma): 0.923 µM
- TGI (M14 melanoma): 15.5 µM
- GI50 (UO-31 renal): 2.96 µM
- TGI (UO-31 renal): 17.6 µM
- GI50 (MDA-MB-231 breast): 4.14 µM
- TGI (MDA-MB-231 breast): 19.3 µM
- GI50 (RPMI-8226 leukemia): 2.74 µM
- TGI (RPMI-8226 leukemia): 40.6 µM
- GI50 (K-562 leukemia): 0.422 µM
- TGI (K-562 leukemia): > 100 µM
- GI50 (SF-539 CNS): 1.25 µM
- TGI (SF-539 CNS): 10.5 µM
- GI50 (SK-MEL-28 melanoma): 10.3 µM
- TGI (SK-MEL-28 melanoma): 23.7 µM
- GI50 (OVCAR-3 ovarian): 0.489 µM
- TGI (OVCAR-3 ovarian): 12.2 µM
- GI50 (U251 CNS): 1.55 µM
- TGI (U251 CNS): 15.2 µM
- GI50 (EKVX NSCLC): 4.86 µM
- TGI (EKVX NSCLC): 39.1 µM
- GI50 (MCF7 breast): 0.485 µM
- TGI (MCF7 breast): 23 µM
- GI50 (NCI-H23 lung): 2.62 µM
- TGI (NCI-H23 lung): 18.3 µM
- GI50 (SR leukemia): 0.462 µM
- TGI (SR leukemia): > 100 µM
- GI50 (LOX IMVI melanoma): 2.5 µM
- TGI (LOX IMVI melanoma): 20.8 µM
- GI50 (SNB-19 CNS): 1.46 µM
- TGI (SNB-19 CNS): 16.7 µM
- GI50 (BT-549 breast): 0.933 µM
- TGI (BT-549 breast): 18.8 µM
- GI50 (RXF 393 renal): 1.07 µM
- TGI (RXF 393 renal): 6.93 µM
- GI50 (SF-268 CNS): 6.47 µM
- TGI (SF-268 CNS): 26.2 µM
- GI50 (OVCAR-8 ovarian): 3.72 µM
- TGI (OVCAR-8 ovarian): 21.5 µM
- GI50 (HT29 colon): 0.515 µM
- TGI (HT29 colon): 10.6 µM
- GI50 (UACC-62 melanoma): 0.458 µM
- TGI (UACC-62 melanoma): 14.5 µM
- GI50 (SK-MEL-5 melanoma): 1.83 µM
- TGI (SK-MEL-5 melanoma): 11.7 µM
- GI50 (786-0 renal): 4.88 µM
- TGI (786-0 renal): 20.9 µM
- GI50 (HCT-116 colon): 0.719 µM
- TGI (HCT-116 colon): 16.4 µM
- GI50 (UACC-257 melanoma): 13.6 µM
- TGI (UACC-257 melanoma): 34.9 µM
- GI50 (KM12 colon): 0.614 µM
- TGI (KM12 colon): 16.7 µM
- GI50 (HOP-62 NSCLC): 1.56 µM
- TGI (HOP-62 NSCLC): 17.7 µM
- GI50 (DU-145 prostate): 3.58 µM
- TGI (DU-145 prostate): 23.2 µM
- GI50 (HCT-15 colon): 0.529 µM
- TGI (HCT-15 colon): 17 µM
- GI50 (NCI-H460 lung): 0.64 µM
- TGI (NCI-H460 lung): 13.8 µM
- GI50 (NCI-H226 lung): 3.46 µM
- TGI (NCI-H226 lung): 17.9 µM
- GI50 (SF-295 CNS): 0.389 µM
- TGI (SF-295 CNS): 10.3 µM
- GI50 (MDA-MB-435): 0.274 µM
- TGI (MDA-MB-435): 1.22 µM
- GI50 (OVCAR-4 ovarian): 5.64 µM
- TGI (OVCAR-4 ovarian): 21.9 µM
- GI50 (CAKI-1 renal): 0.595 µM
- TGI (CAKI-1 renal): 17.5 µM
- GI50 (IGROV1 ovarian): 0.771 µM
- TGI (IGROV1 ovarian): 17.5 µM
- GI50 (OVCAR-5 ovarian): 4.43 µM
- TGI (OVCAR-5 ovarian): 21.5 µM
- GI50 (CCRF-CEM leukemia): 1.71 µM
- TGI (CCRF-CEM leukemia): > 100 µM
- GI50 (HL-60(TB) leukemia): 0.761 µM
- TGI (HL-60(TB) leukemia): 24.2 µM
- GI50 (COLO 205 colon): 1.59 µM
- TGI (COLO 205 colon): 11.8 µM
- GI50 (HOP-92 NSCLC): 0.979 µM
- TGI (HOP-92 NSCLC): 8.45 µM
- GI50 (SN12C renal): 3.49 µM
- TGI (SN12C renal): 17.4 µM
- GI50 (NCI/ADR-RES ovarian): 1.08 µM
- TGI (NCI/ADR-RES ovarian): 15.5 µM
- GI50 (NCI-H522 lung): 1.09 µM
- TGI (NCI-H522 lung): 16.5 µM
- GI50 (A549 NSCLC): 1.9 µM
- TGI (A549 NSCLC): 19.7 µM
- GI50 (PC-3 prostate): 1.25 µM
- TGI (PC-3 prostate): 14.3 µM
- GI50 (SNB-75 CNS): 0.344 µM
- TGI (SNB-75 CNS): 3.33 µM
- GI50 (ACHN renal): 4.67 µM
- TGI (ACHN renal): 45 µM
- GI50 (TK-10 renal): 6.29 µM
- TGI (TK-10 renal): 29.6 µM
- GI50 (MALME-3M melanoma): 2.53 µM
- TGI (MALME-3M melanoma): 28 µM
- GI50 (T-47D breast): 1.7 µM
- TGI (T-47D breast): 33.5 µM
- GI50 (SK-MEL-2 melanoma): 4.66 µM
- TGI (SK-MEL-2 melanoma): 26.9 µM
- GI50 (SW-620 colon): 0.599 µM
- TGI (SW-620 colon): 15.5 µM
- GI50 (HS 578T breast): 1.02 µM
- TGI (HS 578T breast): 17.2 µM
- GI50 (HCC-2998 colon): 3.71 µM
- TGI (HCC-2998 colon): 18.7 µM
